Results published in PubChem BioAssay AID328 (DTP/NCI, 2004).
Several values for one entry are separate records, joined by “and”; a condition that tells them apart may be missing. Identical values can stand only once. Inconclusive results and toxic doses are left out.

System: BDF1 mice, P388 leukemia ip, median survival T/C
Experiment: NCI In Vivo Anticancer Drug Screen. Data for tumor model P388 Leukemia (intraperitoneal) in B6D2F1 (BDF1) mice
Conditions: endpoint: median survival time, higher = longer survival
Method in brief: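 Mice carrying the transplantable tumour receive compound or vehicle. Survival is followed in each arm, and the treated measure is divided by the vehicle measure.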

[1] = dose: 50.0 mg/kg/injection, schedule: Q01DX009 (ip), vehicle: saline
[2] = dose: 100.0 mg/kg/injection, schedule: Q01DX009 (ip), vehicle: saline
[3] = dose: 100.0 mg/kg/injection, schedule: Q04DX003 (ip), vehicle: saline
[4] = dose: 200.0 mg/kg/injection, schedule: Q01DX009 (ip), vehicle: saline
[5] = dose: 200.0 mg/kg/injection, schedule: Q04DX003 (ip), vehicle: saline
[6] = dose: 400.0 mg/kg/injection, schedule: Q04DX003 (ip), vehicle: saline
[7] = dose: 25.0 mg/kg/injection, schedule: Q01DX009 (ip), vehicle: saline with Tween-80
[8] = dose: 50.0 mg/kg/injection, schedule: Q01DX009 (ip), vehicle: saline with Tween-80
[9] = dose: 50.0 mg/kg/injection, schedule: Q04DX003 (ip), vehicle: saline with Tween-80
[10] = dose: 100.0 mg/kg/injection, schedule: Q01DX009 (ip), vehicle: saline with Tween-80
[11] = dose: 100.0 mg/kg/injection, schedule: Q04DX003 (ip), vehicle: saline with Tween-80
[12] = dose: 200.0 mg/kg/injection, schedule: Q01DX009 (ip), vehicle: saline with Tween-80
[13] = dose: 200.0 mg/kg/injection, schedule: Q04DX003 (ip), vehicle: saline with Tween-80
[14] = dose: 400.0 mg/kg/injection, schedule: Q04DX003 (ip), vehicle: saline with Tween-80
[15] = dose: 12.5 mg/kg/injection, schedule: Q04DX003 (ip), vehicle: saline with Tween-80
[16] = dose: 25.0 mg/kg/injection, schedule: Q04DX003 (ip), vehicle: saline with Tween-80

In the case of `O=c1[nH]cc(CCCO)c(=O)[nH]1`, the T/C [1] is reported as 91 % of control, the T/C [2] is reported as 102 % of control and the T/C [3] is reported as 109 % of control. For the same molecule, the T/C [4] was 100 % of control, the T/C [5] was 100 % of control and the T/C (dose: 400.0 mg/kg/injection, schedule: Q01DX009 (ip), vehicle: saline) was 100 % of control. The T/C [6] was 109 % of control.

With `O=C1OC(c2ccccc2)=C/C1=C/c1ccc([N+](=O)[O-])cc1` the T/C [7] was 104 % of control, the T/C [8] was 90 % of control and the T/C [9] was 105 % of control. For the same molecule, the T/C [10] was 100 % of control, the T/C [11] was 109 % of control and the T/C [12] was 92 % of control. The T/C [13] was 99 % of control and 104 % of control, the T/C (dose: 300.0 mg/kg/injection, schedule: Q04DX003 (ip), vehicle: saline with Tween-80) was 87 % of control and the T/C (dose: 400.0 mg/kg/injection, schedule: Q01DX009 (ip), vehicle: saline with Tween-80) was 92 % of control. For the same molecule, the T/C [14] was 96 % of control and the T/C (dose: 600.0 mg/kg/injection, schedule: Q04DX003 (ip), vehicle: saline with Tween-80) was 91 % of control.

With `COc1ccc(C(=O)C(O)c2ccccc2)cc1` (stereo not drawn) the T/C (dose: 100.0 mg/kg/injection, schedule: Q04DX003 (ip), vehicle: other) was 100 % of control and the T/C (dose: 200.0 mg/kg/injection, schedule: Q04DX003 (ip), vehicle: other) was 100 % of control.

In the case of `CN(C)c1ccc(/C=C/c2ccnc3ccccc23)cc1`, the T/C (dose: 5.0 mg/kg/injection, schedule: Q01DX010 (ip), vehicle: saline) is reported as 95 % of control and 100 % of control, the T/C (dose: 9.0 mg/kg/injection, schedule: Q01DX010 (ip), vehicle: saline) is reported as 100 % of control and the T/C (dose: 10.0 mg/kg/injection, schedule: Q01DX010 (ip), vehicle: saline) is reported as 95 % of control and 100 % of control. The T/C (dose: 18.0 mg/kg/injection, schedule: Q01DX010 (ip), vehicle: saline) was 109 % of control, the T/C (dose: 20.0 mg/kg/injection, schedule: Q01DX010 (ip), vehicle: saline) was 90 % of control and 100 % of control and the T/C (dose: 35.0 mg/kg/injection, schedule: Q01DX010 (ip), vehicle: saline) was 109 % of control. The T/C (dose: 40.0 mg/kg/injection, schedule: Q01DX010 (ip), vehicle: saline) was 100 % of control.

`COc1ccccc1Cc1c(OC)cc(OC)c(C(=O)CCc2ccccc2)c1O` was tested, and the T/C (dose: 0.5 mg/kg/injection, schedule: Q01DX009 (ip), vehicle: saline) was 103 % of control and the T/C (dose: 1.0 mg/kg/injection, schedule: Q01DX009 (ip), vehicle: saline) was 106 % of control.

With `CC(C)(C)S[Si](Cl)(SC(C)(C)C)SC(C)(C)C` the T/C (dose: 100.0 mg/kg/injection, schedule: Q04DX002 (ip), vehicle: saline with Tween-80) was 119 % of control, the T/C (dose: 200.0 mg/kg/injection, schedule: Q04DX002 (ip), vehicle: saline with Tween-80) was 103 % of control and the T/C (dose: 400.0 mg/kg/injection, schedule: Q04DX002 (ip), vehicle: saline with Tween-80) was 94 % of control.

With `CC(=O)OC1C2(CC3N4C(=O)C5(CO)SSC4(CC31O)C(=O)N5C)OC(C)C(C)(C)C2=O` (stereo not drawn) the T/C (dose: 3.13 mg/kg/injection, schedule: Q01DX009 (oral), vehicle: saline) was 95 % of control, the T/C (dose: 6.25 mg/kg/injection, schedule: Q01DX009 (oral), vehicle: saline) was 100 % of control and the T/C (dose: 12.5 mg/kg/injection, schedule: Q01DX009 (oral), vehicle: saline) was 103 % of control.

For `C1CO[Te]2(O1)OCCO2`, the T/C [15] was 97 % of control, the T/C [16] was 88 % of control and the T/C [9] was 88 % of control.

With `ClCCN(CCCl)CCCN1c2ccccc2Sc2ccccc21` the T/C (dose: 3.12 mg/kg/injection, schedule: Q04DX003 (ip), vehicle: saline with Tween-80) was 150 % of control, the T/C [15] was 158 % of control and 169 % of control and the T/C [16] was 152 % of control.

`C/C(CCCCl)=N/N=C(N)N` was tested, and the T/C (dose: 7.03 mg/kg/injection, schedule: Q01DX001 (ip), vehicle: saline) was 104 % of control, the T/C (dose: 14.06 mg/kg/injection, schedule: Q01DX001 (ip), vehicle: saline) was 100 % of control and the T/C (dose: 18.75 mg/kg/injection, schedule: Q01DX009 (ip), vehicle: saline) was 115 % of control. The T/C (dose: 18.75 mg/kg/injection, schedule: Q04DX003 (ip), vehicle: saline) was 109 % of control, the T/C (dose: 37.5 mg/kg/injection, schedule: Q01DX009 (ip), vehicle: saline) was 115 % of control and the T/C (dose: 37.5 mg/kg/injection, schedule: Q04DX003 (ip), vehicle: saline) was 100 % of control. The T/C (dose: 50.0 mg/kg/injection, schedule: Q04DX003 (ip), vehicle: saline) was 122 % of control, the T/C (dose: 75.0 mg/kg/injection, schedule: Q01DX009 (ip), vehicle: saline) was 115 % of control and the T/C (dose: 75.0 mg/kg/injection, schedule: Q04DX003 (ip), vehicle: saline) was 100 % of control.

In the case of `c1ccc(OP2OCCO2)cc1`, the T/C [1] is reported as 104 % of control, the T/C [2] is reported as 104 % of control and the T/C [3] is reported as 87 % of control. For the same molecule, the T/C [4] was 95 % of control and the T/C [5] was 112 % of control.

In the case of `O=C(O)C(Cc1cccc(F)c1)NC(=O)C(F)(F)F` (stereo not drawn), the T/C (dose: 1.56 mg/kg/injection, schedule: Q01DX009 (ip), vehicle: saline) is reported as 105 % of control, the T/C (dose: 3.13 mg/kg/injection, schedule: Q01DX009 (ip), vehicle: saline) is reported as 96 % of control and the T/C (dose: 6.25 mg/kg/injection, schedule: Q01DX009 (ip), vehicle: saline) is reported as 104 % of control.

In the case of `Cc1cccc(CSc2nc(N)nc3c2ncn3C2CC(O)C(CO)O2)n1` (stereo not drawn), the T/C [3] is reported as 92 % of control, the T/C [5] is reported as 98 % of control and the T/C [6] is reported as 104 % of control.

In the case of `COc1cc(OC)c(NC(=S)Nc2cc(C)ccc2OC)cc1Cl`, the T/C (dose: 12.5 mg/kg/injection, schedule: Q01DX009 (ip), vehicle: DMSO) is reported as 97 % of control and the T/C (dose: 25.0 mg/kg/injection, schedule: Q01DX009 (ip), vehicle: DMSO) is reported as 93 % of control.

In the case of `O=[N+]([O-])c1ccc(Cc2ccncc2)cc1`, the T/C (dose: 37.5 mg/kg/injection, schedule: Q01DX009 (ip), vehicle: saline sonified) is reported as 100 % of control, the T/C (dose: 75.0 mg/kg/injection, schedule: Q01DX009 (ip), vehicle: saline sonified) is reported as 95 % of control and the T/C (dose: 150.0 mg/kg/injection, schedule: Q01DX009 (ip), vehicle: saline sonified) is reported as 95 % of control.

With `O=C(O)C(Cl)Cc1cnc[nH]1` (stereo not drawn) the T/C [1] was 97 % of control and 91 % of control, the T/C [2] was 107 % of control and 87 % of control and the T/C [4] was 103 % of control and 95 % of control.

In the case of `NC(=S)N/N=C\c1ncnc2ccccc12`, the T/C (dose: 8.0 mg/kg/injection, schedule: Q01DX009 (ip), vehicle: saline with Tween-80) is reported as 150 % of control, the T/C (dose: 12.0 mg/kg/injection, schedule: Q01DX009 (ip), vehicle: saline with Tween-80) is reported as 150 % of control and the T/C (dose: 18.0 mg/kg/injection, schedule: Q01DX009 (ip), vehicle: saline with Tween-80) is reported as 150 % of control.

In the case of `COC(=O)CCC(=O)Nc1ccc(C(=O)CBr)cc1`, the T/C (dose: 25.0 mg/kg/injection, schedule: Q04DX003 (ip), vehicle: Klucel (hydroxypropylcellulose) (HPC)) is reported as 107 % of control and the T/C (dose: 50.0 mg/kg/injection, schedule: Q04DX003 (ip), vehicle: Klucel (hydroxypropylcellulose) (HPC)) is reported as 97 % of control.

`CCOC(=O)C1=C(O)c2c(sc(C)c2C)N(S(=O)(=O)c2ccc(C)cc2)CC1` was tested, and the T/C [7] was 90 % of control, the T/C [8] was 113 % of control and the T/C [9] was 91 % of control. For the same molecule, the T/C [10] was 104 % of control, the T/C [11] was 91 % of control and the T/C [12] was 109 % of control. For the same molecule, the T/C [13] was 91 % of control and the T/C [14] was 100 % of control.

With `CC(C)NC(=O)c1ccccc1Sc1ccccc1C(=O)NC(C)C` the T/C [11] was 105 % of control, the T/C [13] was 105 % of control and the T/C [14] was 99 % of control.

`CC(=O)OCCC/C(=C\c1ccc2ccccc2c1)[N+](=O)[O-]` was tested, and the T/C (dose: 100.0 mg/kg/injection, schedule: Q01DX009 (ip), vehicle: Klucel (hydroxypropylcellulose) (HPC)) was 118 % of control and the T/C (dose: 200.0 mg/kg/injection, schedule: Q01DX009 (ip), vehicle: Klucel (hydroxypropylcellulose) (HPC)) was 122 % of control.

In the case of `COc1ccc(/C=N\NC(=O)OC(C)(C)C)c(OC)c1OC`, the T/C (dose: 100.0 mg/kg/injection, schedule: Q01DX009 (ip), vehicle: acetone) is reported as 100 % of control, the T/C (dose: 100.0 mg/kg/injection, schedule: Q04DX003 (ip), vehicle: Klucel (hydroxypropylcellulose) (HPC)) is reported as 115 % of control and the T/C (dose: 200.0 mg/kg/injection, schedule: Q01DX009 (ip), vehicle: acetone) is reported as 86 % of control. The T/C (dose: 200.0 mg/kg/injection, schedule: Q04DX003 (ip), vehicle: Klucel (hydroxypropylcellulose) (HPC)) was 110 % of control, the T/C (dose: 400.0 mg/kg/injection, schedule: Q01DX009 (ip), vehicle: acetone) was 109 % of control and the T/C (dose: 400.0 mg/kg/injection, schedule: Q04DX003 (ip), vehicle: Klucel (hydroxypropylcellulose) (HPC)) was 100 % of control.
